Earlier results on 1 compound are cited in patent US10980267B2, “Molecular particle superior delivery system” (priority 2018, dated 2021).

The conditions of series [1]: consumed in foods and drinks.
For series [2] the following is noted: in humans, WHO report.
For series [3] the following is noted: especially child seizures.

As to `C=C(C)[C@@H]1CCC(C)=C[C@H]1c1c(O)cc(CCCCC)cc1O` [CBD, cannabidiol], the “safety of consumption / toxicity” value in series [1] is “completely safe to consume in foods and drinks and is considered to be non-toxic”. Moreover, the “abuse or dependence potential” value in series [2] is “no effects indicative of any abuse or dependence potential”. Moreover, the “effect on number of seizures” value in series [3] is “reduce the number of seizures”.
